The source made the active and inactive calls.
How the values were obtained:
[1] = molecular target: T1, Rac GTPase-activating protein 1 (Homo sapiens, UniProt Q9H0H5); assay: blockers of MgcRacGAP-driven Rac1 GTP hydrolysis – biochemical, ADP Hunter fluorescence, primary and confirmatory, confirmation (AID 624330); assay type: functional
T1 sequence (Q9H0H5 whole entry): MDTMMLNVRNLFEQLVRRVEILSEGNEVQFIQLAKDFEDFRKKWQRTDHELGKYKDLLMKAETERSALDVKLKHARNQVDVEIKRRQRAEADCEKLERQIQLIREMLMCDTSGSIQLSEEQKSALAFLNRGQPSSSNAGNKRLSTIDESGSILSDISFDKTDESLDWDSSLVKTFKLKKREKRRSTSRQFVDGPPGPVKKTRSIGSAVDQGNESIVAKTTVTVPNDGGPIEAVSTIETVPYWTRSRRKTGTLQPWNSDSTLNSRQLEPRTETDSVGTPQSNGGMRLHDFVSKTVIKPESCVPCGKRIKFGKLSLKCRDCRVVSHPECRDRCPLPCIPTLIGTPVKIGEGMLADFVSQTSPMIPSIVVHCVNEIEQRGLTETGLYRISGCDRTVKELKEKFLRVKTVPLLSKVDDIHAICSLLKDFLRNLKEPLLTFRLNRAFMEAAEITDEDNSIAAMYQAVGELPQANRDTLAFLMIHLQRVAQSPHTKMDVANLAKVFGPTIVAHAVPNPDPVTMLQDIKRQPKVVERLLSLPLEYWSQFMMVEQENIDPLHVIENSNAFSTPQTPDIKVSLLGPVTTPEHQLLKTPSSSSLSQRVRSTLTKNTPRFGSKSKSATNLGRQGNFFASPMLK

Cytochrome P450 2C19 = Cytochrome P450 2C19 (Homo sapiens, UniProt P33261); assay: Cytochrome panel assay with activity outcomes. Panel member name: p450-cyp2c19 Compounds with AC50 equal or less than 10 uM are considered active; assay type: functional
Cytochrome P450 2C19, sequence (P33261 whole entry): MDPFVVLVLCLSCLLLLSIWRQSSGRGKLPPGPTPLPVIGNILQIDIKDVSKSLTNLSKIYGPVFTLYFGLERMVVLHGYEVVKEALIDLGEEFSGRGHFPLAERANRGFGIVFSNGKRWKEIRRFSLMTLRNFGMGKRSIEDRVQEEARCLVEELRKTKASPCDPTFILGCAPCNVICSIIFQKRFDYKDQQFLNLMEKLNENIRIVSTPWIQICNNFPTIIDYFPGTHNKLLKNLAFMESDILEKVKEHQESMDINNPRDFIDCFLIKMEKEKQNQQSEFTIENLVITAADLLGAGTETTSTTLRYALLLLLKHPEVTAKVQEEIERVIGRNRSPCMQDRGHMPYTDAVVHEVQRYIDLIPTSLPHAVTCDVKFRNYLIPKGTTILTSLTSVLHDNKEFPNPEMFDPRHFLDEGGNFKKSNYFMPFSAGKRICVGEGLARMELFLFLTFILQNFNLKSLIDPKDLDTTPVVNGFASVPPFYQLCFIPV

[2] = Trypanosoma cruzi growth suppression in host cells – NIH3T3 host cells, beta-gal luminescence, confirmation (AID 2044); assay type: functional, cell-based;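 further: intracellular parasites grown in NIH/3T3 mouse fibroblasts as host cells; luminescent beta-galactosidase reporter signal from transgenic T. cruzi replicating inside host cells; inhibitors lower the luminescence signal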
[3] = NIH3T3 cell viability loss – ATP luminescence, mouse fibroblasts, counter-screen, dose response (AID 2010); assay type: functional, cell-based;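 further: cells exposed to compound for about 90 hours before reading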
Cytochrome P450 2C9 = Cytochrome P450 2C9 (Homo sapiens, UniProt P11712)
Cytochrome P450 2C9, sequence (P11712 whole entry): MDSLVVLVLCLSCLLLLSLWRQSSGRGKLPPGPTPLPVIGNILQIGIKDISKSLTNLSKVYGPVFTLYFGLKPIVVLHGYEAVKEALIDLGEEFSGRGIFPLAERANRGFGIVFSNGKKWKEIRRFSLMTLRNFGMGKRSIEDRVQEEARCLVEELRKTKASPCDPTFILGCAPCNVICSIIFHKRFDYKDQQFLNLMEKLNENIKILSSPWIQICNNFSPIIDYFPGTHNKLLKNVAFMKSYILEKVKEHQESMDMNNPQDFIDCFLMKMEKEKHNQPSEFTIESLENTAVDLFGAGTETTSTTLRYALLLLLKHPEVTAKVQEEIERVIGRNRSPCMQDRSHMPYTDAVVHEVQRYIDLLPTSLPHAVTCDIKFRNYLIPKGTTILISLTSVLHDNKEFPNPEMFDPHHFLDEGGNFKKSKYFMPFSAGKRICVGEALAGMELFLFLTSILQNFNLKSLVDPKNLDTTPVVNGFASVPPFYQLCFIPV

Cytochrome P450 1A2 = molecular target: T2, Cytochrome P450 1A2 (Homo sapiens, UniProt P05177);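 further: PubChem cytochrome P450 panel assay, CYP1A2 panel member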
T2 sequence (P05177 whole entry): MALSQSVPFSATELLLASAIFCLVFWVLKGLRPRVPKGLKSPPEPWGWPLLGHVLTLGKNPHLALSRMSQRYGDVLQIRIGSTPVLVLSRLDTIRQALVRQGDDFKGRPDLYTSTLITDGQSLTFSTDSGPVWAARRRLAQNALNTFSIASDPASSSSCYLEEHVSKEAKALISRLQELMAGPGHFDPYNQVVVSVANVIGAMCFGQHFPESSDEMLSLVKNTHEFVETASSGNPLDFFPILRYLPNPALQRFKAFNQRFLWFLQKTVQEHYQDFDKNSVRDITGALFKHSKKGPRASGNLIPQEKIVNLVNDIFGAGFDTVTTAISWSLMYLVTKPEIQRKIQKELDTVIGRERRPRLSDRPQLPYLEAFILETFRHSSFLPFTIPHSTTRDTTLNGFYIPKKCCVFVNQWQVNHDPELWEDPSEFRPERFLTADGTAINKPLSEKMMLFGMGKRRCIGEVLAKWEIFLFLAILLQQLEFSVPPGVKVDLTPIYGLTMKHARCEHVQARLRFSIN

Streptokinase A = molecular target: T3, Streptokinase A (Streptococcus pyogenes serotype M1, UniProt P10520); assay: viability-normalized secreted streptokinase activity reduction – plasminogen activation absorbance, OD405, dose response (AID 1914); assay type: functional, Streptococcus pyogenes M1 GAS;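 further: secreted streptokinase activity via plasminogen activation per viability signal from cell pellet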
T3 sequence (P10520 whole entry): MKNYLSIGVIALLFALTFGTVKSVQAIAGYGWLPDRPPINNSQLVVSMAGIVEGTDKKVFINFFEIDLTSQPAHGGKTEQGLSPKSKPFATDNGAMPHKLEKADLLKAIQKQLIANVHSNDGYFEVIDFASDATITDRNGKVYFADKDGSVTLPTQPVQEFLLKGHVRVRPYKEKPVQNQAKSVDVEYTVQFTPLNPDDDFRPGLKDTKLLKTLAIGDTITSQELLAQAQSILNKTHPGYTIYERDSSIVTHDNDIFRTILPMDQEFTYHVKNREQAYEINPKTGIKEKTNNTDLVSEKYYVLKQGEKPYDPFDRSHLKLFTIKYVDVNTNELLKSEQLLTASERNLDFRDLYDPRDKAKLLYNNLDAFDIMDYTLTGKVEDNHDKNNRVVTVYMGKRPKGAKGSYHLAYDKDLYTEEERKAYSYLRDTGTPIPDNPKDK

[4] = system: Streptococcus sp. 'group A'; assay: Streptococcus pyogenes SK(-)GAS viability under kanamycin – luminescence, BacTiterGlo, confirmation, counter-screen for streptokinase expression inhibitor project, dose response (AID 1900); assay type: functional, organism-based
Streptococcus = assay: GAS UMAA2166 growth inhibition – luminescence, BacTiterGlo, counter-screen for streptokinase expression inhibitor project, dose response (AID 1915); assay type: functional, organism-based;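 further: potency for reduction of bacterial viability or growth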
[5] = luciferase reporter signal suppression in cells – H4 neuroglioma cells, luminescence, dose response (AID 1990); assay type: functional, cell-based
[6] = alpha-synuclein stem-loop luciferase translation blockers – H4 neuroglioma cells, luminescence, confirmation (AID 1988); assay type: functional, cell-based

O=C1c2ccccc2NC(c2ccc(O)cc2)N1/N=C/c1ccc(O)cc1 (stereo not drawn)
IC50 [1]: 66.4 µM (active)

CCn1c(SCc2ccc(C)cc2)nnc1-c1nn(-c2ccccc2)ccc1=O
AC50 (Cytochrome P450 2C19): inconclusive

O=C(CC(C(=O)N1CCc2ccccc21)n1ccnc1)N1CCc2ccccc2C1 (stereo not drawn)
EC50 [2]: 276 nM (active)
EC50 [3]: 11.5 µM (active)

O=c1c(-c2cc(F)cc(F)c2)nc2cnc(Oc3ccccc3)nc2n1C1CC1
AC50 (Cytochrome P450 2C9): 10 µM (inconclusive)

Cc1ccc(OC(=O)N2CCOCC2)cc1
AC50 (Cytochrome P450 2C19; read-out: AC50): 28.2 µM (inconclusive)
AC50 (Cytochrome P450 1A2): 17.8 µM (inconclusive)
AC50 (Cytochrome P450 2C9): 39.8 µM (inconclusive)

O=c1c(-c2cc(F)cc(F)c2)nc2cnc(N3CCOCC3)nc2n1CCc1ccccc1
AC50 (Cytochrome P450 1A2): 2.51 µM (inconclusive)

CCn1ncc(C(=O)Nc2cc(C)on2)c1C
AC50 (Cytochrome P450 2C19; read-out: AC50): 15.8 µM (inconclusive)
AC50 (Cytochrome P450 1A2): 15.8 µM (inconclusive)

Cc1sc2nc(CN3CCOCC3)nc(N3CCOCC3)c2c1C
IC50 [1]: 191 µM (active)

O=C(CN1CCN(c2ccc(O)cc2)CC1)Nc1ccccc1C(=O)NCCc1ccccc1
IC50 [1]: 41.5 µM (active)

CCOC(=O)CSc1nnc(CNC(=O)c2ccc(OC)cc2)n1C1CCCCC1
AC50 (Cytochrome P450 2C19; read-out: AC50): 10 µM (inconclusive)
AC50 (Cytochrome P450 1A2): 5.01 µM (inconclusive)

Cc1ccc(CONC(=O)/N=C/N(C)C)cc1
AC50 (Cytochrome P450 1A2): 28.2 µM (inconclusive)

CN1CCN(c2ncc3nc(-c4ccccc4)c(=O)n(Cc4ccc(F)cc4)c3n2)CC1
AC50 (Cytochrome P450 2C19; read-out: AC50): 39.8 µM (inconclusive)

CC(=O)CSc1nnc(Cc2ccc([N+](=O)[O-])cc2)o1
AC50 (Cytochrome P450 1A2): 15.8 µM (inconclusive)
AC50 (Cytochrome P450 2C9): 35.5 µM (inconclusive)

CN/C(=N/c1cc(Cl)ccc1Cl)SC1CC(=O)N(c2ccc(C(=O)OC)cc2)C1=O (stereo not drawn)
EC50 (Streptokinase A): > 50 µM (not active)

Cc1ccc(-c2cc3nc(-c4ccc(Br)cc4)cc(N)n3n2)cc1
EC50 [4]: 1.59 µM (active)
EC50 (Streptococcus): 1.06 µM (active)

O=C(COc1ncnc2cc([N+](=O)[O-])ccc12)NC(=O)NC1CCCCC1
EC50 [2]: 122 nM (active)
EC50 [3]: > 60 µM (not active)

CCC(C)(C)n1nnnc1C(c1cccc(C#N)c1)N1CCN(c2cc(C)ccc2C)CC1 (stereo not drawn)
EC50 [2]: 1730 nM (active)
EC50 [3]: 32.6 µM (active)

Cc1ccc2cc3c(N)c(C(=O)N4CC(=O)Nc5ccccc54)sc3nc2c1
EC50 [5]: < 100 nM (active)
EC50 [6]: < 100 nM (active)

CN(C)CCN(C(=O)c1ccc(S(=O)(=O)N2CCCC2)cc1)c1nc2ccc(Br)cc2s1
EC50 [2]: 122 nM (active)
EC50 [3]: > 30 µM (not active)

COc1cc(/C=C/CN2CCN(Cc3ccc(C)o3)C(CCO)C2)ccc1O (stereo not drawn)
IC50 [1]: 363 µM (active)

CN(C)C(=O)c1ccc(-c2ccc3ncnc(NC4CCNCC4)c3c2)cc1
AC50 (Cytochrome P450 1A2): 20 µM (inconclusive)

Cc1nc(C/C(=N\N)c2ccc(O)cc2O)cs1
IC50 [1]: 64 µM (active)

COC(=O)[C@@]1(Cc2ccc(F)cc2)[C@H]2c3cc(C(=O)N4CCCC4)n(CCO)c3C[C@H]2CN1C(=O)c1ccccc1
AC50 (Cytochrome P450 2C19; read-out: AC50): 39.8 µM (inconclusive)
AC50 (Cytochrome P450 1A2): 25.1 µM (inconclusive)

Cc1ccc(O)c(/N=C/c2sc3ccccc3c2Cl)c1
IC50 [1]: 39.2 µM (active)

O=C(/C=C(\c1ccc(Cl)cc1)n1cncn1)c1ccc(Cl)cc1
EC50 [2]: 475 nM (active)
EC50 [3]: > 60 µM (not active)
